These results are taken from patent US11730705B2, “Small molecule CMKLR1 antagonists in inflammatory disease” (The Board of Trustees of the Leland Stanford Junior …, priority 2019, dated 2023).

Where “and” joins values, the source holds several entries; their conditions need not be identical. Equal entries are not always repeated. Where two headings read alike, the source gives them in different places.

One data set concerns EAE in C57BL/6 mice. Description: EAE induced by MOG35-55/CFA immunization. The class given is in vivo, mouse. The following applies: FIG. 1C; 10 mg/kg daily; compared with Tecfidera or vehicle control. The procedure:
FIG. 1A-1D. […] (FIG. 1D) The integrated clinical score over time for each animal was calculated as area under the curve (AUC).
EAE. […] CFA consisted of 5 mg/ml mTB (Mycobacterium-tuberculosis H37 Ra, BD Difco) in IFA (Incomplete Freund's Adjuvant, Sigma). MOG35-55 was reconstituted at 2 mg/ml in PBS. Mice also received 200 ng pertussis toxin (List Biological Laboratories, Inc) by i.p. injection at the time of immunization and two days later. […] For a direct comparison to α-NETA, the DMF and compound doses were also 10 mg/kg in 10% captisol. Mice were monitored daily for clinical disease and scored (0=normal/healthy, 1=limp tail, 2=hindlimb weakness, 3=hindlimb paralysis, 4=hindlimb and forelimb paralysis, 5=moribund/dead).

Another data set addresses T1, Cyp2B6 (Homo sapiens, UniProt P20813).
T1 construct: Human liver microsomes were pre-incubated with 7 concentrations; tissue Cyprotex/Evotec AG; host or cells: human liver microsomes
T1 sequence (P20813 1-491): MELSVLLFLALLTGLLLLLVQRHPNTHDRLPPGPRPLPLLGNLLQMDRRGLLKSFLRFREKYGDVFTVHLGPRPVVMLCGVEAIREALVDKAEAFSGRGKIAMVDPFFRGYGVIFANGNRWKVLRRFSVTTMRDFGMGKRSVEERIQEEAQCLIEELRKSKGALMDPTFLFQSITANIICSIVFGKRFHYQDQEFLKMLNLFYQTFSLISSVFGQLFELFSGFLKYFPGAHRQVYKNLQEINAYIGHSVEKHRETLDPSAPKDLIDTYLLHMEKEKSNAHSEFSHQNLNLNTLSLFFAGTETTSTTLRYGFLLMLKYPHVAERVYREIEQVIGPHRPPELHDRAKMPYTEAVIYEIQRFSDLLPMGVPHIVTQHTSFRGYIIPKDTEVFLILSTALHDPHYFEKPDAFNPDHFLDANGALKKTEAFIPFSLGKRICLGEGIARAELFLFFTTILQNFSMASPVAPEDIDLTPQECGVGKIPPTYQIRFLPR
Description: Cyp enzyme inhibition, human liver microsomes. The class given is in vitro ADME. The following applies: 30 min pre-incubation. The method, then:
(§1) Cyp enzyme inhibition. Human liver microsomes were pre-incubated with 7 concentrations ([…], duplicate wells) of α-NETA for 30 min.
Background: Liver microsomes are vesicles of endoplasmic reticulum, rich in cytochrome P450 enzymes.

A further data set has as its target T2, Cyp2C19 (Homo sapiens, UniProt P33261).
T2 construct: Human liver microsomes were pre-incubated with 7 concentrations; tissue Cyprotex/Evotec AG; host or cells: human liver microsomes
Description: Cyp enzyme inhibition, human liver microsomes. Format: in vitro ADME. Particulars: 30 min pre-incubation. The method, then:
as §1

A further data set concerns the target T3, Cyp2C8 (Homo sapiens, UniProt P10632).
T3 construct: Human liver microsomes were pre-incubated with 7 concentrations; tissue Cyprotex/Evotec AG; host or cells: human liver microsomes
T3 sequence (P10632 1-490): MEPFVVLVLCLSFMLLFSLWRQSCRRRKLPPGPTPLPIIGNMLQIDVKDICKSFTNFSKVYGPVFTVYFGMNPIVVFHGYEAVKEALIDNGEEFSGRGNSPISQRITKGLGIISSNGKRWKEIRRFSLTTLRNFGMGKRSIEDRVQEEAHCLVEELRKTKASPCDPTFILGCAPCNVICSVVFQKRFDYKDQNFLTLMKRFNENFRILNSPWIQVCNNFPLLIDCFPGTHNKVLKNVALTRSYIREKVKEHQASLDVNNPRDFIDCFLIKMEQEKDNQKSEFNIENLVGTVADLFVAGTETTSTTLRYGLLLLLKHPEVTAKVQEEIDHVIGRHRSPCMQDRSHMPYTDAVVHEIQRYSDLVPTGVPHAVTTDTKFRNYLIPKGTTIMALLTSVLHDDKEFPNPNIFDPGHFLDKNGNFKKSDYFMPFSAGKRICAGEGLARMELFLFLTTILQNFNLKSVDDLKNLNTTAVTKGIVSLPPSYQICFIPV
Description: Cyp enzyme inhibition, human liver microsomes. The following applies: 30 min pre-incubation. The class given is in vitro ADME. The procedure:
as §1

The next data set addresses T4, Cyp2C9 (Homo sapiens, UniProt P11712).
T4 construct: Human liver microsomes were pre-incubated with 7 concentrations; tissue Cyprotex/Evotec AG; host or cells: human liver microsomes
In words: Cyp enzyme inhibition, human liver microsomes. Format: in vitro ADME. Particulars: 30 min pre-incubation. The method, then: as §1

Another data set has as its target Cyp1A2 (Homo sapiens, UniProt P05177). Particulars: PubChem BioAssay ID 1476; read-out: Cyp Inhibition IC50 (μM), Cyp1A2; cited from earlier work.
In a further data set the target is Cyp3A4 (Homo sapiens, UniProt P08684). In words: Cyp enzyme inhibition, human liver microsomes. The class given is in vitro ADME. On the set-up: Human liver microsomes were pre-incubated with 7 concentrations; tissue Cyprotex/Evotec AG; host or cells: human liver microsomes. The procedure:
as §1

Cyp3A4, sequence (P08684 whole entry): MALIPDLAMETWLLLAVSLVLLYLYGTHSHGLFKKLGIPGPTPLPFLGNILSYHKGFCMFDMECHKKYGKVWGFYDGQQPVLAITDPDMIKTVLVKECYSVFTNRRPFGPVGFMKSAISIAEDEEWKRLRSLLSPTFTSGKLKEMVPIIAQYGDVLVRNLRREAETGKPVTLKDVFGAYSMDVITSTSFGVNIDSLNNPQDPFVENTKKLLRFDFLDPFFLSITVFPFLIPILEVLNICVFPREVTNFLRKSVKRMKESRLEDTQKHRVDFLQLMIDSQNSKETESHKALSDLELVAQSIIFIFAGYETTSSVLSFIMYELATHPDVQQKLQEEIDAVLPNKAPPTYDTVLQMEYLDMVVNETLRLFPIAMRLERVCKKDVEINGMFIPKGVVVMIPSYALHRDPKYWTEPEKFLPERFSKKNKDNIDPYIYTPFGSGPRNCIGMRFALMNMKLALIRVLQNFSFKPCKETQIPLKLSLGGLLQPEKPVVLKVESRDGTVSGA
Cyp1A2, sequence (P05177 whole entry): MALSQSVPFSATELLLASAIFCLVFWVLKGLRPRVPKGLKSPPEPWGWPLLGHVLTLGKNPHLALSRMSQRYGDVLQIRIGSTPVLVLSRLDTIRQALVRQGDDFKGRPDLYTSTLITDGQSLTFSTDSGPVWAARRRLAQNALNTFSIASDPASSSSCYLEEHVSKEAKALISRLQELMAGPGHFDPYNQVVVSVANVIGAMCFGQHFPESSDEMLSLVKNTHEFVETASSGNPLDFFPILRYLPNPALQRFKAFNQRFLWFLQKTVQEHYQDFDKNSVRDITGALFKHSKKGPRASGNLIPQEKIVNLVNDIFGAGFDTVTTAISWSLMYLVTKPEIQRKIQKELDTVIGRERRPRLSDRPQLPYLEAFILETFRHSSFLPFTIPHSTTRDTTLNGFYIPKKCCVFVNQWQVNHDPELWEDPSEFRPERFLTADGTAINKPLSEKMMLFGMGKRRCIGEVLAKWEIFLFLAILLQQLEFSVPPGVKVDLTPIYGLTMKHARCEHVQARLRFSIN
T4 sequence (P11712 whole entry): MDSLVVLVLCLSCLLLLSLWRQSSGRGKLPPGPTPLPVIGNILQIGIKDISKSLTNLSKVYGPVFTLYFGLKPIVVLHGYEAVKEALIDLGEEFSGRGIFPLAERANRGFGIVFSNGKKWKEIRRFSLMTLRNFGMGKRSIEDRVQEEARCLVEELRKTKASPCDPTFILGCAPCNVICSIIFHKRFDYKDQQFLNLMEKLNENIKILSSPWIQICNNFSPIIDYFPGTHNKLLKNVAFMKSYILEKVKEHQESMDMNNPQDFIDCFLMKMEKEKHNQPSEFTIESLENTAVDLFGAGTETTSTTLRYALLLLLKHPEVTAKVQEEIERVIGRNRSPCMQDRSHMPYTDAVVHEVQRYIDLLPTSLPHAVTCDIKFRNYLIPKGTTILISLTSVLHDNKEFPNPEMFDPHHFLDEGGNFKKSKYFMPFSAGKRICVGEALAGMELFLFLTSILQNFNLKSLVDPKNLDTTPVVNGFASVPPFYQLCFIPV
T2 sequence (P33261 whole entry): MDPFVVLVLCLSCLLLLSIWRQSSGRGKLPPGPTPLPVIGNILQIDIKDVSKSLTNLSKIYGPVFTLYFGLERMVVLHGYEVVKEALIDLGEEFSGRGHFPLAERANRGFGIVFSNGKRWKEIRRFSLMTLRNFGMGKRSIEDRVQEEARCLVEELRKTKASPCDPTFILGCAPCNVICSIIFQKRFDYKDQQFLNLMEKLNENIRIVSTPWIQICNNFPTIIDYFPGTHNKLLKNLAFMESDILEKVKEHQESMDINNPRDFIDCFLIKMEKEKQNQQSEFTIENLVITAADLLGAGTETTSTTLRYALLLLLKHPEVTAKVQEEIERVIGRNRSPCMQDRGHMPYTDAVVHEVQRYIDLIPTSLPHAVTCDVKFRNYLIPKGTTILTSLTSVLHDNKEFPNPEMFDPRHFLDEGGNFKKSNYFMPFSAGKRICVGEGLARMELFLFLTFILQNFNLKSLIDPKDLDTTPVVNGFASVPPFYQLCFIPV

In general, IC50 refers to the concentration at which inhibition is half-maximal. As to `C[N+](C)(C)CCC(=O)c1cccc2ccccc12.[I-]` [α-NETA, 2-(α-naphthoyl) ethyltrimethylammonium iodide], in the data set on EAE in C57BL/6 mice, the “severity of clinical EAE” value is “significantly suppressed”. In addition, the IC50 against Cyp2B6 was 0.12 µM; on Cyp2C19 it was 84 µM; against Cyp2C8, 1.5 µM; against Cyp2C9, 14.6 µM; on Cyp1A2, 8 µM; on Cyp3A4 (human liver microsomes, substrate Midazolam, read-out: Cyp Inhibition IC50 (μM), Cyp3A4), 7.4 µM and 7.5 µM. Besides, the IC50 at Cyp3A4 (substrate testosterone, read-out: Cyp3A4 IC50) amounted to 6.9 µM.
